Literature values in US8802148B2, “Microparticles and method for their production” (Alrise Biosystems GmbH, priority 2002, dated 2014).
Where a name gives a salt, the structure may show the parent alone.

settings: at 20-25° C.

Compared with `COC(C)=O` [methyl acetate], `CCOC(C)=O` [ethyl acetate] is lower in “Solubility in water (w/w)” value: 22.8% for the first, 7.43% for the second.

First: CCCOC=O [propyl formate]
Second: CCOC=O [ethyl formate]
The “Solubility in water (w/w)” value of the first is lower: 2.82% for the first, 8.4% for the second.

First: CC(=O)OC(C)C [iIsopropyl acetate, isopropyl acetate]
Second: CCCOC(C)=O [propyl acetate]
The “Solubility in water (w/w)” value of the first is higher: 3.09% for the first, 1.67% for the second.
